Entries after “also recorded” stand apart in the source; their conditions may differ.
How the values were obtained:
human P2X7 receptor = target: T1, human P2X7 receptor (Homo sapiens, UniProt Q99572); assay: bzATP-induced YO-PRO-1 dye uptake in HEK293 cells stably expressing the human P2X7 receptor; type: cell-based
T1 construct: expressed in transfected cells
T1 sequence (Q99572 1-595): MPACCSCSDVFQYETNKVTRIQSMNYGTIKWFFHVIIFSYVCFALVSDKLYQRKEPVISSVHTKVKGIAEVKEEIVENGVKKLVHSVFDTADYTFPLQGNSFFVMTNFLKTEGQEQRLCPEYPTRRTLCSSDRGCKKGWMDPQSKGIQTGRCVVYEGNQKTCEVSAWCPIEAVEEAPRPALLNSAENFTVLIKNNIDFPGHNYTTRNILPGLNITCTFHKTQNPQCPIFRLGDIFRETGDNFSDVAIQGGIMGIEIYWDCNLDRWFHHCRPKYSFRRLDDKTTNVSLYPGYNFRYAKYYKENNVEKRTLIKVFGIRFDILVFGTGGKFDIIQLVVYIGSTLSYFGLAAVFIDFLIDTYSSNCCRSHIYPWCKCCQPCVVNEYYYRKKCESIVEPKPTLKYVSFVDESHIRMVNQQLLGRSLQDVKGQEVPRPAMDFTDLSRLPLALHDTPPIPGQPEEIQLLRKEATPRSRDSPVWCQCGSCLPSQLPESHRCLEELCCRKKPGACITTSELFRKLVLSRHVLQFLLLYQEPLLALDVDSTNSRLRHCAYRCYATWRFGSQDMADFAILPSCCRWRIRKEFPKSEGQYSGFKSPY
Text: Finally, P2X7 activation is associated with the formation of a large pore that is permeable to molecules of up to ˜1000 Da (Adinolfi et al., 2005; Cheewatrakoolpong et al., 2005; Surprenant et al., 1996).

Caspase-1 [1] = assay: Western blot of Caspase-1 activation in primary human RPE cells transfected with Alu RNA; type: cell-based; conditions: for Caspase-1 activation / cleavage (p20) induced by Alu RNA: concentration not given; for Caspase-1 maturation caused by Alu RNA: 24 hours after Alu administration, 50-100 uM, FIG. 7
Procedure: The bottom row is a vinculin loading control. […]
FIG. 7 is a Western blot showing that Alu RNA causes Caspase-1 maturation in primary human RPE cells at 24 hours after Alu administration (top, middle lane, lower band), which is blocked with co-treatment with azidothymidine (AZT), cordycepin, and abacavir (ABC) (50-100 uM; lanes 3-8 from left). The loading control vinculin is shown on the bottom.
FIG. 21 is a Western blot of Caspase-1 activation (p20 subunit) in primary human RPE cells transfected with Alu RNA±me-d4T.
FIG. 35 is a Western blot of Caspase-1 activation in human RPE cells transfected with Alu RNA±NRTIs (3TC, AZT, ABC).
The bottom row in FIG. 5 is a vinculin loading control. […]
Next, FIG. 7 provides evidence of AZT, cordycepin, and abacavir inhibition of inflammasome activation by Alu RNA. Indeed, Alu RNA causes NLRP3 inflammasome activation, which is marked by processing of the enzyme Caspase 1. FIG. 7 is a Western blot showing that Alu RNA causes Caspase-1 maturation in primary human RPE cells at 24 hours after Alu administration (top, lane 2, lower band), which is blocked with co-treatment with azidothymidine (AZT), cordycepin, and abacavir (ABC) (50-100 uM; Lanes 3-8). Again, the loading control vinculin is shown on the bottom.

[2] = tested on: GFP-expressing lentivirus; assay: Replication of a GFP-expressing lentivirus in HeLa cells; type: cell-based; conditions: FIG. 22
Text: The present disclosure further provides the results of additional experiments in FIG. 21-FIG. 23.

RPE degeneration = RPE degeneration in mice after sub-retinal injection of a plasmid expressing Alu RNA, systemic drug administration; type: in vivo, mouse
Text: FIG. 24, top row, provides flat mounts stained for zonula occludens-1 (ZO-1; red), bottom row. Degeneration is outlined if FIG. 24 by blue arrowheads. Representative images of n=4 are shown.
FIG. 36 and FIG. 37 include fundus photographs: top row; flat mounts stained for zonula occludens-1 (ZO-1; red), bottom row. Degeneration is outlined by blue arrowheads. Scale bars, 50 μm.

Caspase-1 [3] = assay: LPS/ATP-induced Caspase-1 activation in mouse bone marrow-derived macrophages (Western blot); type: cell-based; conditions: mouse bone marrow-derived macrophages, supernatants; 100 uM; FIG. 9
Text: (§1) To produce FIG. 9, cell culture supernatants were collected after (i) no treatment, (ii) LPS treatment, or (iii) LPS/ATP treatment of mouse bone marrow-derived macrophages and run on Western blotting probing with antibodies for Caspase-1 and IL-18.
Further, the present inventors also tested whether NRTIs blocked inflammasome activation by LPS/ATP, which is not known to signal via reverse transcriptase (Mariathasan et al., 2004; Mariathasan et al., 2006; Martinon et al., 2002).
(§2) FIGS. 38-41 illustrate that NRTIs block LPS/ATP-induced inflammasome activation. […] Representative images of n=3-4 experiments are provided in each of FIGS. 38-41.

IL-18 = assay: LPS/ATP-induced IL-18 maturation in mouse bone marrow-derived macrophages (Western blot); type: cell-based; conditions: supernatants, 100 uM, FIG. 9
Text: as §1

IL-1 beta [4] = assay: MSU-induced IL-1 beta secretion from PMA-differentiated THP-1 monocytes (ELISA); type: cell-based, human; conditions: co-administration at 25-1000 uM, FIG. 11, 12
Text: Human THP-1 monocytes were differentiated into macrophages with PMA.
To illustrate this, human THP-1 monocytes were differentiated into macrophages with PMA. Treatment with MSU increased IL-1 beta secretion compared to non-treated cells.

[5] = tested on: Raji TK^+ and Raji TK^− cells; assay: Phosphorylation of AZT to AZT-triphosphate in Raji TK+ and TK- cells (LC-MS); type: in vitro ADME; conditions: FIG. 40, 50
Text: FIG. 50 is a standard curve of AZT-TP standards (black circle).
(§3) To determine whether LPS/ATP-induced inflammasome activation can be inhibited without RT inhibition, the present inventors utilized thymidine kinase-deficient (Raji/TK^−) and -expressing (Raji/TK^+) cells (Balzarini et al., 1989). After addition of AZT, […], but not TK^− cells, the present inventors produced AZT-triphosphate (AZT-TP), the AZT metabolite required for RT inhibition (FIG. 40; FIG. 46, FIG. 47, FIG. 48, FIG. 49, FIG. 50).
FIG. 50 is a standard curve of AZT-TP standards (black circle). […] FIG. 50 is representative of two experiments.

IL-1 beta [6] = assay: LPS/ATP-induced IL-1 beta activation in Raji TK- and TK+ cells (Western blot of cell lysates); type: cell-based; conditions: FIG. 41
Text: as §3, §2

Clc1cccc(-c2nnnn2Cc2cccnc2)c1Cl [A438079] was tested, and the “P2X7-mediated YO-PRO-1 dye uptake (fluorescence) induced by bzATP” value (human P2X7 receptor; bzATP 100 μM, 64 μM for both drugs, p<0.05, n=12, FIG. 43) was “inhibited”.
In the case of COC[C@@H]1C=C[C@H](n2cc(C)c(=O)[nH]c2=O)O1 [me-d4T, 5′-OCH3-d4T], the “Caspase-1 activation / cleavage (p20) induced by Alu RNA” value (“Caspase-1 activation / cleavage” for short) (Caspase-1 [1]; FIG. 21, 34, 35, 51-53) is reported as “blocks Caspase-1 activation in human RPE cells”, the “Caspase-1 activation / cleavage” value (Caspase-1 [1]; FIG. 21, 34, 35, 51-53, listed as 5′-methoxy-d4T) is reported as “block Caspase 1 activation by Alu RNA” and the “Replication of a GFP-expressing lentivirus” value ([2]; HeLa cells) is reported as “does not block lentivirus replication”. For the same molecule, the Reverse transcriptase inhibition ([2]; confirmed by lentivirus replication) was “does not inhibit reverse transcriptase” and the “Alu-induced RPE degeneration” value (RPE degeneration; me-d4T intraperitoneal injection, n=4, FIG. 24) was “prevents Alu-induced RPE degeneration in mice”.
In the case of Clc1ccc(C(c2ccc(Cl)cc2)n2cc[n+](CC(OCc3ccc(Cl)cc3Cl)c3ccc(Cl)cc3Cl)c2)cc1 (stereo not shown) [calmidazolium], the “Caspase-1 activation / cleavage” value (Caspase-1 [1]; FIG. 21, 34, 35, 51-53) is reported as “not inhibited”.
Nc1ncnc2c1ncn2[C@@H]1O[C@H](CO)C[C@H]1O [cordycepin] was tested, and the “Caspase-1 maturation caused by Alu RNA” value (Caspase-1 [1]) was “blocked”, the “Caspase-1 activation (active p20 band) induced by LPS/ATP” value (Caspase-1 [3]) was “inhibit” and the “IL-18 maturation induced by LPS/ATP” value (IL-18) was “inhibit”. For the same molecule, the “IL-1 beta secretion induced by MSU” value (IL-1 beta [4]) was “did not significantly affect IL-1beta secretion”.
Cc1cn([C@H]2C[C@H](N=[N+]=[N-])[C@@H](CO)O2)c(=O)[nH]c1=O [AZT, 3′-azido-2′,3′-dideoxythymidine] was tested, and the “Caspase-1 maturation caused by Alu RNA” value (Caspase-1 [1]) was “blocked”, the “Caspase-1 activation / cleavage” value (Caspase-1 [1]; FIG. 21, 34, 35, 51-53) was “block Caspase 1 activation by Alu RNA; also recorded: block Caspase-1 cleavage induced by Alu RNA” and the “P2X7-dependent uptake of YO-PRO1 after addition of bzATP” value (human P2X7 receptor; human P2X7-overexpressing HEK293 stable cell line, concentration not given) was “inhibited P2X7-dependent uptake of the fluorescent dye YO-PRO1”. For the same molecule, the “RPE degeneration caused by pAlu” value (RPE degeneration; intraperitoneal administration of AZT, FIG. 37) was “prevent RPE degeneration; also recorded: prevented”, the “Phosphorylation of AZT to AZT-triphosphate (AZT-TP)” value ([5]; Raji TK^+ cells) was “produced AZT-TP; also recorded: phosphorylate AZT to AZT-triphosphate (AZT-TP)” and the “Phosphorylation of AZT to AZT-triphosphate (AZT-TP)” value ([5]; Raji TK^− (thymidine kinase-deficient) cells) was “is not phosphorylated; also recorded: AZT was not phosphorylated; also recorded: AZT-TP was not detectable; also recorded: but not Raji TK^− cells”. The “IL-1 beta activation by LPS/ATP” value (IL-1 beta [6]; Raji TK^+ cells) was “blocks IL-1 beta activation” and the “IL-1 beta activation by LPS/ATP” value (IL-1 beta [6]; Raji TK^− cells) was “still blocks LPS/ATP-induced interleukin-1 beta secretion; also recorded: still inhibited LPS/ATP-induced interleukin-1 beta maturation; also recorded: blocks IL-1 beta activation”.

Source: patent US10864212B2, “Compositions and methods for treating retinal degradation” (University of Kentucky Research Foundation, priority 2013, dated 2020)
